The record followed here is ChEMBL document CHEMBL3808391, “Evolution of a New Class of VEGFR-2 Inhibitors from Scaffold Morphing and Redesign” (ACS Med Chem Lett, 2016).

The test has as its target Vascular endothelial growth factor receptor 2 (Homo sapiens, UniProt P35968). Kind of test: Inhibition of KDR (unknown origin).

Chain of Vascular endothelial growth factor receptor 2 (P35968 whole entry): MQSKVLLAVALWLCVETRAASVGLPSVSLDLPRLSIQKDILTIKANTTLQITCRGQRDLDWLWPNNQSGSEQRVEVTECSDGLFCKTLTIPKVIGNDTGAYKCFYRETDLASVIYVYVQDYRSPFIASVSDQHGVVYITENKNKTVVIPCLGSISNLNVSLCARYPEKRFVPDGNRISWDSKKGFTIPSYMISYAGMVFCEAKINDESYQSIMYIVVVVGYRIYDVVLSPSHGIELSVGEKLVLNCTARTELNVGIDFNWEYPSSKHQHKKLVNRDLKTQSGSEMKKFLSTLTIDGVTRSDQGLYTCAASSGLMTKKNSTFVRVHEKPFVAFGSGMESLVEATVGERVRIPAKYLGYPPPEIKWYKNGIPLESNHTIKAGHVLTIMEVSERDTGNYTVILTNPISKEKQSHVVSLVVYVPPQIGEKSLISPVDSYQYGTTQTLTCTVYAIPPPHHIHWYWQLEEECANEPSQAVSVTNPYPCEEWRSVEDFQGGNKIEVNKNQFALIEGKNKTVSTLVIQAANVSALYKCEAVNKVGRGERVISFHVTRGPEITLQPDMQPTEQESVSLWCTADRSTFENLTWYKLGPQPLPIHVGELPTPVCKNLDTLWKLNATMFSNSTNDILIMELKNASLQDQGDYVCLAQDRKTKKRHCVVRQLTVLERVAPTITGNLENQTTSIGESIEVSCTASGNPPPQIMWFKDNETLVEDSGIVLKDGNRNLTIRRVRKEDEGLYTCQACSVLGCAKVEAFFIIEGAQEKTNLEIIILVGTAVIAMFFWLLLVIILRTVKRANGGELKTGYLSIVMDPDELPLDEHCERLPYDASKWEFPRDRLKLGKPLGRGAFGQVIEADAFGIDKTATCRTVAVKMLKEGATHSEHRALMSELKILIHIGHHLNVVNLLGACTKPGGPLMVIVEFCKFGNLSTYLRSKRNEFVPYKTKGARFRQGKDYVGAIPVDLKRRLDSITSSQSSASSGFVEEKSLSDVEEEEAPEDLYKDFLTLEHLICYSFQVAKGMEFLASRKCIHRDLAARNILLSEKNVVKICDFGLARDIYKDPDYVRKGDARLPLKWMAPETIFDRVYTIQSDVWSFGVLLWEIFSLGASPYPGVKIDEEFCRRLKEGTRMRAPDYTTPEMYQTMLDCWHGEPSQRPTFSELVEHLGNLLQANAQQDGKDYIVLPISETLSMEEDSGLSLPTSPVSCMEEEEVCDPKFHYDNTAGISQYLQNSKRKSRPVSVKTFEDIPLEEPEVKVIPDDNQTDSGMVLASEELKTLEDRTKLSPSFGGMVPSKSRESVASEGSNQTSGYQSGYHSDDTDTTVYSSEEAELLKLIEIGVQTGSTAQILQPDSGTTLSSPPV

For orientation: IC50 means the point on the concentration scale where inhibition reaches its midpoint. For the molecule `Nc1cc(-c2ccc(NC(=O)Nc3cccc(C(F)(F)F)c3)cc2)on1`, the IC50 is more than 10 µM.
The figure for `CC(C)(C)c1cc(NC(=O)Nc2ccc(-c3cc(N)no3)cc2)no1` is more than 10 µM.
